Assay results published in patent publication US11560391B2, “Sulfonylurea compounds as inhibitors of interleukin-1 activity” (Genentech, Inc., priority 2018, dated 2023).

Tests used:
[1] = system: TNFα; assay: TNFα levels of LPS and nigericin stimulated PBMCs (counter-screen); assay type: cell-based; conditions: Homo sapiens, PBMC; read-out: PMBC TNFα IC50
Procedure: Human peripheral blood mononuclear cells (PBMCs), consisting of lymphocytes (T, B and NK cells), monocytes and dendritic cells, are freshly isolated from human peripheral blood from healthy donors. Cells are obtained through an IRB approved donor program by iXCells Biotechnologies where all the donors are tested for bacterial and viral infections. Cells are purified from peripheral blood using ficoll gradient centrifugation.
Fresh or cryopreserved PMBCs are seeded in V-bottom 96-well plate at 0.5-1×10^5 cells per well and incubated overnight at 37° C. with 5% CO2 in RPMI 1640 medium with GlutaMAX supplement, 4.5 g/L D-glucose, 10% Fetal Bovine Serum (FBS), […] Sodium Pyruvate, 1% Penicillin/Streptomycin, 10 mM HEPES and 0.05 mM of […]. Freshly isolated or cryopreserved KCs cells are seeded in flat-bottom 96-well plates at 0.6-1.5×10^5 cells/well and incubated overnight at 37° C., 5% CO2 in RPMI 1640 Medium with GlutaMAX supplement, FBS, 1% Penicillin/Streptomycin and 10 mM HEPES. The following day, the cells are primed with 100 ng/mL of lipopolysaccharides (LPS; Sigma Aldrich) in FBS-free RPMI 1640 for 3 h. After the priming step, the media is removed and PBMCs are pre-incubated with serial concentrations of test compounds (0.00017-10 uM) or vehicle (DMSO) for 30 min in FBS-free media prior to addition of the NLRP3 activator. Cells are then stimulated with 10 μM Nigericin (Sigma Aldrich; InvivoGen) for 1.5 h. Plates were centrifuged at 1,500 rpm for 3 minutes to pellet cells and supernatant was transferred into new plates for subsequent experiments.
For ELISA assays cells are seeded into 96-well plates. Post study, supernatants are removed and the levels of mature IL-1β, IL18 and TNFα (Quantikine ELISA, R&D systems) are measured in cell conditioned media by ELISA according to manufacturer's instructions.
TNFα levels of LPS and nigericin stimulated cells are measured by HTRF assay (Cisbio, Bedford, Mass.). […] Measuring TNFalpha production also serves as a technical counter-screen to eliminate compounds that interfere with the HTRF reagents. Thus compounds that inhibit both IL-1β and TNFα levels are triaged for either being non-selective for inflammasome or interfering with the HTRF readout.

[2] = system: PBMCs; assay: CTG (CellTiter-Glo) viability assay of compound-treated LPS and nigericin stimulated PBMCs; assay type: cell-based, human; conditions: Homo sapiens, PBMC; read-out: PMBC CTG IC50
In short: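 Human PBMCs primed with 100 ng/mL LPS for 3 h, pre-incubated 30 min with compound (0.00017–10 uM) in FBS-free medium, then stimulated with 10 μM nigericin for 1.5 h. Viability read by CellTiter-Glo ATP luminescence as a cytotoxicity counter-screen.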

[3] = molecular target: T1, NLRP3 inflammasome (Homo sapiens, UniProt Q96P20); assay: NLRP3 inflammasome activation assay in LPS-primed, nigericin-stimulated PBMCs, IL-1β release; assay type: cell-based; conditions: PBMC, LPS priming, 10 μM nigericin; read-out: PMBC IL-1β IC50
T1 construct: freshly isolated from human peripheral blood from healthy donors; StemCells Technologies; host or cells: primary human PBMCs
T1 sequence (Q96P20 whole entry): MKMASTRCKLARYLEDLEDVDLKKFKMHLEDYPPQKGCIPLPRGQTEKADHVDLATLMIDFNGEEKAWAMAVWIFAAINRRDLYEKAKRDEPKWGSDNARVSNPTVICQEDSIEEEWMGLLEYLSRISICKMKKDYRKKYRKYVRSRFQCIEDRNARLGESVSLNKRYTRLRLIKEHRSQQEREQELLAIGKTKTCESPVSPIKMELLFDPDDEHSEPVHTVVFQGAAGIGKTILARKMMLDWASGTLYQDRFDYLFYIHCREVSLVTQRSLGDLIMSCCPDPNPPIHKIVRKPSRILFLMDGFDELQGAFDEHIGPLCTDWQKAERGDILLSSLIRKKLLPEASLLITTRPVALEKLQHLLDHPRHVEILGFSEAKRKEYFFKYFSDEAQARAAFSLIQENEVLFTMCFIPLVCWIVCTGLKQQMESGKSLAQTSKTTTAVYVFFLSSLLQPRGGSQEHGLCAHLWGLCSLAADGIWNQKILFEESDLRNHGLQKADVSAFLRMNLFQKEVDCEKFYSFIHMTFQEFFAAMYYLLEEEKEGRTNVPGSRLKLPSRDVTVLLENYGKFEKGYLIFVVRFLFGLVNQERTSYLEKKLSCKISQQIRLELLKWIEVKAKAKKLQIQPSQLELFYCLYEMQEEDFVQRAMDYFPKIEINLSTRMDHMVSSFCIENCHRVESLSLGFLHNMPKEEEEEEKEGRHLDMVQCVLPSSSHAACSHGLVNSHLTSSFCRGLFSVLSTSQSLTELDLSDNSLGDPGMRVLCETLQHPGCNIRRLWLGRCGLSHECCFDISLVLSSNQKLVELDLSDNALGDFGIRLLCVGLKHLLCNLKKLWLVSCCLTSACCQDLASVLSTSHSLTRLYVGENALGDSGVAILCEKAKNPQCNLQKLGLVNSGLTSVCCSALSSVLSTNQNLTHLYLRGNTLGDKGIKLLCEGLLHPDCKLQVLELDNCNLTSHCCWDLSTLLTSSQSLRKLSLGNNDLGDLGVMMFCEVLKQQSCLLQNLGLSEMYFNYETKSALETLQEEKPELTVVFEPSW
In short: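 Fresh or cryopreserved human PBMCs primed with 100 ng/mL LPS for 3 h, pre-incubated 30 min with compound (0.00017-10 uM, or 2-fold 20-point series from 40 μM), then stimulated with 10 μM nigericin for 1.5 h at 37 °C. Supernatant IL-1β measured by ELISA or by HTRF (665/620 ratio).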

[4] = system: THP-1 ASC-GFP cells; assay: THP-1 ASC-GFP speck assay (NLRP3 inflammasome activation, nigericin); assay type: cell-based; conditions: THP1-ASC-GFP; PMA-differentiated, LPS primed, 10 μM nigericin
In short: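 PMA-differentiated (500 ng/ml, overnight) THP-1 ASC-GFP cells primed with LPS 1 μg/mL for 3 h, pre-treated 30 min with compound (20-point, 2-fold from 40 μM), then nigericin 10 μM for 90 min. After fixation, imaging gives % cells with ASC-GFP specks against Hoechst-counted nuclei.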

SMILES: COc1cc(C(C)C)c(NC(=O)NS(=O)(=O)c2cnn3c2OC[C@@H](N(C)C)C3)c(C(C)C)n1 [Example 52a, (S)—N-((2,4-diisopropyl-6-methoxypyridin-3-yl)carbamoyl)-6-(dimethylamino)-6,7-dihydro-5H-pyrazolo[5,1-b][1,3]oxazine-3-sulfonamide]
- IC50 [1]: > 10000 nM
- IC50 [2]: 390 nM
- IC50 [3]: 790 nM
- IC50 [4]: 500 nM

SMILES: CNc1cc(C(C)C)c(NC(=O)NS(=O)(=O)c2cnn3c2OCCC3)c(C(C)C)n1 [Example 53, N-((2,4-diisopropyl-6-(methylamino)pyridin-3-yl)carbamoyl)-6,7-dihydro-5H-pyrazolo[5,1-b][1,3]oxazine-3-sulfonamide]
- IC50 [1]: > 10000 nM
- IC50 [2]: 880 nM
- IC50 [3]: 3400 nM
- IC50 [4]: 3300 nM

SMILES: CC(C)c1cc(C(F)(F)F)nc(C(C)C)c1NC(=O)NS(=O)(=O)c1cnn2c1OCCC2 [Example 54, N-((2,4-diisopropyl-6-(trifluoromethyl)pyridin-3-yl)carbamoyl)-6,7-dihydro-5H-pyrazolo[5,1-b][1,3]oxazine-3-sulfonamide]
- IC50 [1]: > 10000 nM
- IC50 [2]: 16 nM
- IC50 [3]: 320 nM
- IC50 [4]: 620 nM
